Measured values taken from ChEMBL document CHEMBL1147160, “Bioactive constituents from the marine crinoid Himerometra magnipinna” (2007).
Activity calls are given as the source filed them. The rule behind the calls is not given here.

Key:
[1] = test system: Streptomyces; assay: Inhibition of hyphae formation in Streptomyces 85E at 40 ug/disk after 30 hrs by HF1 assay; assay type: functional, organism-based
[2] = test system: Streptomyces; assay: Inhibition of hyphae formation in Streptomyces 85E at 80 ug/disk after 30 hrs by HF1 assay; assay type: functional; conditions: for zone of inhibition at 80 µg/disc: read-out: IZ

SMILES | Activity [1] | zone of inhibition at 80 µg/disc [2] | Activity [2]
COC1=C(Br)[C@H](O)[C@@]2(C=C1Br)CC(C(=O)NCCC(O)CCNC(=O)C1=NO[C@]3(C=C(Br)C(OC)=C(Br)[C@@H]3O)C1)=NO2 | inactive | 11 mm | –
COC1=C(Br)[C@H](O)[C@@]2(C=C1Br)CC(C(=O)NCCCCNC(=O)C1=NO[C@]3(C=C(Br)C(OC)=C(Br)[C@@H]3O)C1)=NO2 | – | – | inactive
CCCc1cc(O)c2c(c1)C(C1c3cc(O)cc(O)c3C(=O)c3c(O)cc(C(O)CC)cc31)c1cc(O)cc(O)c1C2=O (stereo not given) | inactive | 11 mm | –
